Measured values as given in patent US20040097454A1, “Method for modulation of cell phenotype” (University Technology Corporation, priority 1999, published 2004).

How the values were obtained:
[1] = system: bovine aorta smooth muscle cells (BASMC); assay: BASMC morphology and α SM actin content on PKA inhibition; format: cell-based
From the text: To confirm literature reports of the importance of cAMP for the smooth muscle cell (SMC) phenotype, bovine aorta smooth muscle cells (BASMC) were examined for changes in morphology and migration upon modulation of PKA activity. These cells are from a single vascular bed and harvested from an ingrown strain of cattle. BASMC are an established model of vascular smooth muscle tissue in culture (Cucina et al., 1999, J. Surg. Res., 82:61-66; Frid et al., 1997, Circ. Res., 81:940-952; Frid et al., Arterioscler Throb Vasc Biol 17:1203-1209,1997; Hatzi et al., 1999, Eur. J. Biochem., 260:825-832; Stenmark et al., Chest 114:82S-90S, 1998; Takahashi et al., Circ Res 84:543-550, 1999; Underwood et al., 1998, J. Vasc. Res., 35:449-460), and are useful for assessing vascular smooth muscle cell proliferation, migration and contraction. […] Specifically, H89 results in loss of SMC “spindle shape” representative of differentiated, contractile phenotype.

[2] = system: CREB-dependent promoter transactivation in BASMC; assay: CREB-dependent Gal4-TKluc reporter in BASMC; format: cell-based, bovine; conditions: for CREB-dependent promoter transactivation: insulin 100 nM, glucose 25 mM
Method: Isoproterenol is well documented to act through cAMP, yet no studies defining its impact on CREB transactivation in SMCs have been reported. In the next experiment, the ability of ISO to drive a CREB dependent reporter construct was determined. BASMC were transfected with Gal4-TKluc plasmid containing the Gal4 promoter and a thymidine kinase enhancer upstream of the gene encoding a luciferase reporter. These cells were cotransfected with control plasmid (pUC19), a plasmid encoding the Gal4 protein alone, or plasmids encoding chimeric Gal4 proteins with either wild type CRF-B (pZI-Gal4-TKluc) or Ser 133 mutated CREB (SeYI33). […] Of note, basal PKA mediated CRE reporter transcription is very high in these cells and is blocked by the PKA inhibitor H89.

P-CREB/CREB in BASMC = assay: Acute CREB phosphorylation in BASMC; format: cell-based, bovine; conditions: acute treatment, confluent BASMC serum starved 48 hours
Method: A series of experiments was performed to determine the ability of insulin, IGF-1 and ISO to acutely enhance CREB phosphorylation in BASMC. BASMC were grown to confluence, ss for 48 hours, and acutely treated with insulin, IGF-1, or Iso in the concentrations noted in FIG. 12A-12C.

ICER in BASMC = assay: ICER protein and mRNA content in BASMC exposed to glucose and insulin; format: cell-based, bovine; conditions: for ICER protein content: 72 hour; for ICER mRNA: glucose (5 and 25 mM) and insulin (3 and 100 nM), 72 h
Method: Next, BASMCs were exposed to either 3 nM or 100 nM insulin for 72 hours and analyzed for mRNA content of ICER. ICER protein was induced by physiological doses of glucose and insulin. […] BASMC were cultured to 90% confluence and treated with glucose (5 and 25 mM) and insulin ([…]) for 72 h. Total RNA was isolated from these cells using Qiagen's RNeasy kit. RNA samples were fractionated on denaturing 1.2% agarose-formaldehyde gels and transferred to Hybond N+ membrane. ICER IIγ CDNA probe was labeled with thermostable alkaline phosphatase using the AlkPhos-Direct kit from Amersham Lifesciences (Buckinghamshire, England). Hybridization, washing and detection by CDP-Star were performed according to manufacturer's protocol.

CREB in BASMC = assay: CREB content and phosphorylation in BASMC exposed to high glucose or high insulin; format: cell-based, bovine; conditions: 72 hours exposure
Method: Studies were undertaken in BASMC to examine the impact of high glucose (HG) and/or high insulin (HI) on CREB and ICER content. BASMC were grown to confluence, ss for 24 hours, then treated with the concentrations of insulin and/or glucose.

BASMC migration = assay: SMC migration, Boyden chamber; format: cell-based, bovine; conditions: high glucose 25 mM vs 5 mM, 48 h
Method: BASMC were grown to 70% confluence and serum starved for 48 hours. Cells were then treated with 0.1 uM PDGF and assessed for thymidine incorporation (FIG. 10A) and migration (FIG. 10B) as follows. […] Migratory behavior of SMC cells was assessed using a 12 well micro-Boyden chamber apparatus (Transwell Apparatus, Costar, Corning, N.Y.). […] Wells were covered with a Type I collagen-coated PVP-free filter with 8 mm pores (Transwell Apparatus, Costar, Corning, N.Y.). Trypsinized cells were resuspended in serum-free medium containing either chemotactic compounds or vehicle, and plated at a density of 25,000 or 50,000 cells per well in a volume of 100 μL. At the end of the incubation, cells attached to the filter were fixed and stained in Dif Quick (American flospital Supply Corp., McGraw Park, Ill.).

[3] = system: NIH 3T3-L1 preadipocyte cell lines; assay: Adipocyte differentiation assay, Oil Red O staining of triacylglycerol; format: cell-based
Method: Differentiation assays were performed on cells growing on 8 chamber microscope slides. […] The cells were treated with a differentiation mixture, muristerone, or both. […] Muristerone was added to medium at a final concentration of 10 uM for the entire 10 day differentiation period. After 10 days in culture, the cells were stained with Oil Red 0 to visualize triacylglycerol vesicles as previously described (Klemm et al., 1998, J. Biol. Chem., 273:917-923), and counterstained with hematoxylin to visualize cell morphology. Cells were observed by brightfield microscopy and representative fields, were photographed.

[4] = system: putative CRE sequences of adipocyte-specific gene promoters; assay: Gel retardation assay of recombinant CREB with putative CRE oligonucleotides; format: binding; conditions: twenty base pair double stranded 32P-labeled oligonucleotides
Method: Next, the ability of purified, recombinant CREB to bind double stranded oligonucleotide probes of these sequences in gel retardation assays was tested as previously described in Klemm et al., 1998, J. Biol. Chem., 273:917-923. Twenty base pair, double stranded nucleotides, end labeled with y32P-ATP and polynucleotide kinase, were incubated with purified, recombinant 30 CREB protein. The reactions were separated on nondenaturing, 6% polyacrylamide gels and exposed to Kodak X-ARomat film. […] In these experiments, 5 ug of nuclear extract protein prepared from 3T3-L1 fibroblasts was incubated with the indicated, labeled oligonucleotides either in the absence (−) or presence (+) of CREB specific antibody. The reactions were separated on polyacrylamide gels as described above and exposed to film. […] Obviously, CREB may not bind to some of the tested sequences in the context of their native promoter environment or under conditions found within the cell. Alternately, CREB may interact with the putative CRE sites we have tested in the PPARγ2 and CEBP α promoters under different conditions, or perhaps bind to other sequences in these promoters not identified by visual inspection.

BASMC = assay: Cell cycle phase by fluorescence flow cytometry (Krishan's stain) in BASMC with inducible WT CREB; format: cell-based, bovine; conditions: muristerone-induced expression; 0.1 or 10% serum
Method: BASMC were stably transfected with the muristerone-inducible wild-type CREB (WT CREB) expression vector. They were then exposed to serum at 0.1 or 10% with and with exposure to muristerone to induce CREB expression. FIGS. 8A-8D show control cells on the left and muristerone cells on the right. Cells were incubated with Krishan's stain and subjected to fluorescence flow cytometry to assess proliferative capacity to determine phase in the cell cycle. […] This peak was smaller in the cells incubated in low serum. […] The stably transfected clone served as its own control. Preliminary studies were next undertaken to investigate the impact of adenoviral infection with constitutively active CREB (adVP16 CREB) on CRE driven gene expression, proliferation, and migration.

Molecule: O=S(=O)(NCCNC/C=C/c1ccc(Br)cc1)c1cccc2cnccc12 [H89]
- α SM actin content ([1]; 0-10 uM, 72 hours): decreased α SM actin content
- cellular morphology ([1]; 10 uM, 4, 8 and 24 hours, relative to untreated control): significant alterations in cellular morphology
- basal PKA mediated CRE reporter transcription [2]: blocked
- endogenous CREB kinase activity (Gal4-CREB reporter) ([2]; PKA inhibitor treatment): attenuates high endogenous CREB kinase activity

Molecule: CC(C)NCC(O)c1ccc(O)c(O)c1 (centres unmarked) [Iso, Isoproterenol]
- P-CREB/CREB content (P-CREB/CREB in BASMC): acutely increases P-CREB/CREB content

Molecule: OC[C@H]1OC(O)[C@H](O)[C@@H](O)[C@@H]1O (some centres unmarked) [glucose]
- ICER protein content (ICER in BASMC): induced ICER protein
- ICER mRNA (ICER in BASMC): increase in ICER mRNA
- CREB phosphorylation (PCREB) (CREB in BASMC): delayed increases in PCREB
- change in CREB protein content (CREB in BASMC): −32%
- cell migration in Boyden Chamber (BASMC migration): increased cell migration
- CREB-dependent promoter transactivation [2]: attenuates this activity

Molecule: CC(C)CC[C@@H](O)[C@](C)(O)[C@H]1CC[C@@]2(O)C3=CC(=O)[C@]4(O)C[C@@H](O)[C@@H](O)C[C@]4(C)[C@H]3[C@H](O)C[C@]12C [muristerone, reference compound]
- triacylglycerol accumulation (Oil Red O) in control cells ([3]; control cells (pVgRXR, pIND-LacZ), 10 uM muristerone alone, 10 days): No triacylglycerol accumulation

Molecule: IGF-1: insulin growth factor I
- P-CREB/CREB content (P-CREB/CREB in BASMC): acutely increases P-CREB/CREB content

Molecule: Recombinant CREB: purified, recombinant CREB protein
- binding to promoter probes of PEPCK, FABP, FAS, SCD and CEBP genes [4]: able to bind

Molecule: WT CREB: wild-type CREB expressed from muristerone-inducible vector or adenovirus
- cell cycle phase (BASMC): cell cycle arrest

Molecule: insulin: insulin; high insulin (HI)
- ICER protein content (ICER in BASMC): decreased ICER content
- ICER mRNA (ICER in BASMC): increase in ICER mRNA
- triacylglycerol accumulation in VP16-CREB-expressing cells ([3]; muristerone induced cells also treated with insulin, versus muristerone alone): triacylglycerol accumulation was enhanced
- P-CREB/CREB content (P-CREB/CREB in BASMC): acutely increases P-CREB/CREB content
- CREB phosphorylation (PCREB) (CREB in BASMC): increased CREB phosphorylation
- change in CREB protein content (CREB in BASMC): −24%
- transcriptional activation of CREB in presence of H89 ([2]; PKA inhibited with H89): clear dose-dependent transcriptional activation of CREB
- CREB-dependent promoter transactivation [2]: increases CREB-dependent promoter transactivation
